According to US5468587A, “Hydrogen bond accepting groups on thermal solvents for image separation systems” (Eastman Kodak Company, priority 1993, dated 1995):

How the values were obtained:
[1] = heat activated transfer of image dye (yellow coupler Y-1, developer CD-3) through gelatin interlayer to polymeric dye receiver, Status A blue density; details: 3 passes; coupler Y-1, CD-3
Method: (§1) Heat Activated Image Transfer. Dried integral films are laminated with gelatin subbed ESTAR™ film base and passed through a set of heated rollers at 0.635 cm./sec. with roller surface temperatures of 110° C. and a pressure of 140 kPa. The two film bases are separated; the gelatin layers adhere to the gelatin subbed ESTAR™ base and are thus separated from the polymeric dye receiver layer and its support. Status A reflection densitometry is obtained on the polymeric dye-receiver layer coated on a reflective support. These density values determined with the appropriate Status A filter are given in Example 1 in Table III.
Thermal Solvent Test Employing a Yellow Dye Forming Coupler. Three film examples are prepared in a manner analogous to examples 1 and 2 above, using a yellow dye forming coupler, Y-1, and a blue sensitized cubic emulsion in place of M-1 and a green sensitized emulsion, respectively. […]
For all three example films the dye density transferred to the dye-receiverlayer in the absence of a thermal processing step (0-pass) is quite small indicating the absence of significant transfer under aqueous processing. […] For film example 15 in which the interlayer contains both gelatin and the thermal test material, TS-1, there is a substantial transfer of image dye as measured by the blue density. […]

[2] = heat activated transfer of image dye (yellow coupler Y-1, developer CD-2) through gelatin interlayer to polymeric dye receiver, Status A blue density; details: coupler Y-1, CD-2
Method: as §1
Thermal Solvent Test Employing a Yellow Dye Forming Coupler. Three film examples are prepared in a manner analogous to examples 1 and 2 above, using a yellow dye forming coupler, Y-1, and a blue sensitized cubic emulsion in place of M-1 and a green sensitized emulsion, respectively. In this example TS-1 is compared with no added hydroxybenzene compound and with a hydroxybenzene without a hydrogen bond accepting functional group (CS-1). The thermal solvent [drawing 8] test layer is coated at gelatin laydown of 1.40 g/m^2 and a thermal solvent test compound at 1.30 g/m^2. The dye generating layer is coated at 1.40 g/m^2 of gelatin, 0.53 g/m^2 of coupler Y-1 and 0.38 g/m^2 of Ag. The photographic development and thermal processing is as described in example 2. […]

[3] = heat activated transfer of image dye (coupler M-1, developer CD-3) through gelatin interlayer to polymeric dye receiver, Status A green density
Method: The following 17 examples are prepared to examine the ability of materials to effect the transfer of image dye through intervening layers of gelatin binder into a polymeric dye receiver layer and are described by the coating format shown in FIG. 2. The first layer (FIG. 2, layer 14) contains gelatin binder and the material to be tested as a thermal solvent while the upper layer (FIG. 2, layer 16) contains the image generating chemistry comprising a silver chloride emulsion and a dispersion of a dye generating coupler in a gelatin binder. A third, protective overcoat, layer (FIG. 2, layer 15) containing gelatin and hardener is applied over the first two gelatin test layers.
Examples 1 and 2 describe in detail the preparation of the solutions and dispersions used in these examples. Examples 3 and 4 describe the same film samples processed in a second developer. Example 1 contains no added material in the first gelatin layer. Example 2 is an example of a compound of our invention according to formula I.
Gelatin Interlayer Melt Preparation. This is an interlayer consisting of only gelatin that serves as a control for comparison of the effect of added materials on transfer of heat-transferable dyes through gelatin layers. […]

SMILES | transfer of the integral dye density to receiver [1] | transfer of the integral dye density to the receiver layer [2] | transfer of the dye density in the original image ([3]; 1-pass) | transfer of the dye density in the original image ([3]; 3-pass)
CCCCCCCCCCCCc1ccc(O)cc1 [CS-1] | less than 6% | less than 4% |  | 
CCCCCCCCCCS(=O)(=O)c1ccc(O)cc1 [TS-1, 4-n-Decylsulfonylphenol] |  |  | 45% | 71%
